The source of these data is US7759366B2 (Sanofi-Aventis, priority 2006, dated 2010).

The assay has as its target hCB1R (Homo sapiens, UniProt P21554). In words: In vitro functional assay (FLIPR, intracellular Ca2+) with recombinant HEK293 cells, CB1. The class given is cell-based. The arrangement: expressed in transfected cells; host or cells: HEK293. The note with it: recombinant HEK293 cells expressing CB1 and Galpha16; 20 min preincubation, then reference agonist; Ca2+ change; read-out: hCB1R: FLIPR; IC50. The source says: In Vitro Functional Assays with Recombinant Cells:

pIC50: −log10 of the molar value.

Chain of hCB1R (P21554 whole entry): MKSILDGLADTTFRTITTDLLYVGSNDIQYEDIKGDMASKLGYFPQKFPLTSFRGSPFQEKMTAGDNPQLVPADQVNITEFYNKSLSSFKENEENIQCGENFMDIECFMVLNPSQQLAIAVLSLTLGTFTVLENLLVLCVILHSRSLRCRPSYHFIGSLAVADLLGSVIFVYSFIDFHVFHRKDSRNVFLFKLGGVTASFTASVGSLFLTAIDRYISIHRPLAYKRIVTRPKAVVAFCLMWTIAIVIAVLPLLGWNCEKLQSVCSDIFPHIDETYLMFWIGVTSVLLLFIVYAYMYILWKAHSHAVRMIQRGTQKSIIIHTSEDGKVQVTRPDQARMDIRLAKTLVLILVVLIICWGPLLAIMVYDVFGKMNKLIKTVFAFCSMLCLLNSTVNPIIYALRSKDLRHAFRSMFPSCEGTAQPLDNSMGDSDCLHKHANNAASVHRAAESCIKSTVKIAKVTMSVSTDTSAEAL

Regarding `CC(C)Oc1ccc(Nc2ccccc2CN2C(=O)N(c3ccc(C#N)c(C(F)(F)F)c3)C(=O)C2(C)C)cc1` [Example 127, 4-{3-[2-(4-isopropoxyphenylamino)benzyl]-4,4-dimethyl-2,5-dioxoimidazolidin-1-yl}-2-trifluoromethylbenzonitrile], the pIC50 is 8.15.
For `COc1ncc(Nc2ccccc2CN2C(=O)N(c3ccc(C#N)c(C(F)(F)F)c3)C(=O)C2(C)C)cn1` [Example 180, 4-{3-[2-(2-methoxypyrimidin-5-ylamino)benzyl]-4,4-dimethyl-2,5-dioxoimidazolidin-1-yl}-2-trifluoromethylbenzonitrile], the pIC50 is 9.00.
For `COc1ccc(CN2C(=O)N(c3ccc(C#N)c(C(F)(F)F)c3)C(=O)C2(C)C)c(Nc2ccc(C(=O)O)cc2)c1` [Example 130, 4-{2-[3-(4-cyano-3-trifluoromethylphenyl)-5,5-dimethyl-2,4-dioxoimidazolidin-1-ylmethyl]-5-methoxyphenylamino}benzoic acid], the pIC50 was 7.49.
For `CC(C)(C)Oc1ncc(Nc2ccccc2CN2C(=O)N(c3ccc(C#N)c(C(F)(F)F)c3)C(=O)C2(C)C)c(OC(C)(C)C)n1` [Example 208, 4-{3-[2-(2,4-di-tert-butoxypyrimidin-5-ylamino)benzyl]-4,4-dimethyl-2,5-dioxoimidazolidin-1-yl}-2-trifluoromethylbenzonitrile] the value was 7.89; for `COC(=O)c1ccc(Nc2cc(F)ccc2CN2C(=O)N(c3ccc(F)c(C(F)(F)F)c3)C(=O)C2(C)C)cn1` [Example 255, Methyl 5-{5-fluoro-2-[3-(4-fluoro-3-trifluoromethylphenyl)-5,5-dimethyl-2,4-dioxoimidazolidin-1-ylmethyl]phenylamino}pyridine-2-carboxylate], 7.55; for `COC(=O)c1ccc(Nc2ccccc2CN2C(=O)N(c3ccc(C#N)c(C(F)(F)F)c3)C(=O)C2(C)C)c(F)c1` [Example 72, methyl 4-{2-[3-(4-cyano-3-trifluoromethylphenyl)-5,5-dimethyl-2,4-dioxoimidazolidin-1-ylmethyl]phenylamino}-3-fluorobenzoate], 7.62.
In the case of `CC1(C)C(=O)N(c2ccc(C#N)c(C(F)(F)F)c2)C(=O)N1Cc1ccccc1Nc1ccc(Cl)c(Cl)c1` [Example 20, 4-{3-[2-(3,4-dichlorophenylamino)benzyl]-4,4-dimethyl-2,5-dioxoimidazolidin-1-yl}-2-trifluoromethylbenzonitrile], the pIC50 is 7.68.
As to `CC1(C)C(=O)N(c2ccc(C#N)c(-c3ccc(Cl)cc3)c2)C(=O)N1Cc1ccc(F)cc1Nc1ccc(C(=O)O)cc1` [Example 228, 4-{2-[3-(4′-chloro-6-cyanobiphenyl-3-yl)-5,5-dimethyl-2,4-dioxoimidazolidin-1-ylmethyl]-5-fluorophenylamino}benzoic acid], the pIC50 is 7.21.
For `COC(=O)CNc1ccc(Nc2ccccc2CN2C(=O)N(c3ccc(C#N)c(C(F)(F)F)c3)C(=O)C2(C)C)cc1` [Example 177, Methyl (4-{2-[3-(4-cyano-3-trifluoromethylphenyl)-5,5-dimethyl-2,4-dioxoimidazolidin-1-ylmethyl]phenylamino}phenylamino)acetate] the value was 9.00; for `COC(=O)c1ccc(Nc2cc(Cl)cc(Cl)c2CN2C(=O)N(c3ccc(C#N)c(C(F)(F)F)c3)C(=O)C2(C)C)cc1` [Example 104, methyl 4-{3,5-dichloro-2-[3-(4-cyano-3-trifluoromethylphenyl)-5,5-dimethyl-2,4-dioxoimidazolidin-1-ylmethyl]phenylamino}benzoate], 7.82.
As for `CC1(C)C(=O)N(c2ccc(C#N)c(C(F)(F)F)c2)C(=O)N1Cc1cc(Cl)cc(Cl)c1Nc1ccc(F)cc1` [Example 38, 4-{3-[3,5-Dichloro-2-(4-fluorophenylamino)benzyl]-4,4-dimethyl-2,5-dioxoimidazolidin-1-yl}-2-trifluoromethylbenzonitrile], the pIC50 is 7.15.
To `CC1(C)C(=O)N(c2ccc(C#N)c(C(F)(F)F)c2)C(=O)N1Cc1ccccc1Nc1ccc(Cl)cc1` [Example 4, 4-{3-[2-(4-chlorophenylamino)benzyl]-4,4-dimethyl-2,5-dioxoimidazolidin-1-yl}-2-trifluoromethylbenzonitrile] belongs 8.40; to `CC1(C)C(=O)N(c2ccc(C#N)c(C(F)(F)F)c2)C(=O)N1Cc1ccccc1Nc1ccc(C(=O)O)cc1F` [Example 80, 4-{2-[3-(4-cyano-3-trifluoromethylphenyl)-5,5-dimethyl-2,4-dioxoimidazolidin-1-ylmethyl]phenylamino}-3-fluorobenzoic acid], 7.48; to `COC(=O)c1ccc(Nc2cc(F)ccc2CN2C(=O)N(c3ccc(C#N)c(C4CC4)c3)C(=O)C2(C)C)cc1` [Example 158, Methyl 4-{2-[3-(4-cyano-3-cyclopropylphenyl)-5,5-dimethyl-2,4-dioxoimidazolidin-1-ylmethyl]-5-fluorophenylamino}benzoate], 8.05.
Consider `CC(=O)Nc1ccc(Nc2ccccc2CN2C(=O)N(c3ccc(C#N)c(C(F)(F)F)c3)C(=O)C2(C)C)cc1` [Example 148, N-(4-{2-[3-(4-Cyano-3-trifluoromethylphenyl)-5,5-dimethyl-2,4-dioxoimidazolidin-1-ylmethyl]phenylamino}phenyl)acetamide], for which the pIC50 was 7.96.
As to `CC1(C)C(=O)N(c2ccc(C#N)c(C(F)(F)F)c2)C(=O)N1Cc1ccccc1Nc1ccc(C#N)c(C(F)(F)F)c1` [Example 3, 4-{3-[2-(4-cyano-3-trifluoromethylphenylamino)benzyl]-4,4-dimethyl-2,5-dioxoimidazolidin-1-yl}-2-trifluoromethylbenzonitrile], the pIC50 was 7.66.
Consider `CC1(C)C(=O)N(c2ccc(C#N)c(C(F)(F)F)c2)C(=O)N1Cc1ccccc1Nc1cnc(O)nc1O` [Example 246, 4-{3-[2-(2,4-Dihydroxypyrimidin-5-ylamino)benzyl]-4,4-dimethyl-2,5-dioxoimidazolidin-1-yl}-2-trifluoromethylbenzonitrile], for which the pIC50 was 8.15.
`CC1(C)C(=O)N(c2ccc(C#N)c(C(F)(F)F)c2)C(=O)N1Cc1ccccc1Nc1ccccc1Cl` [Example 21, 4-{3-[2-(2-chlorophenylamino)benzyl]-4,4-dimethyl-2,5-dioxoimidazolidin-1-yl}-2-trifluoromethylbenzonitrile]: the pIC50 is 8.00.
With `CC1(C)C(=O)N(c2ccc(F)c(C(F)(F)F)c2)C(=O)N1Cc1ccc(F)cc1Nc1ccc(S(C)(=O)=O)cc1` [Example 213, 1-[4-fluoro-2-(4-methanesulfonylphenylamino)benzyl]-3-(4-fluoro-3-trifluoromethylphenyl)-5,5-dimethylimidazolidine-2,4-dione], the pIC50 is 6.93.
Consider `CC1(C)C(=O)N(c2ccc(C#N)c(C(F)(F)F)c2)C(=O)N1Cc1ccccc1Nc1cccc(Cl)c1` [Example 22, 4-{3-[2-(3-chlorophenylamino)benzyl]-4,4-dimethyl-2,5-dioxoimidazolidin-1-yl}-2-trifluoromethylbenzonitrile], for which the pIC50 is 7.34.
To `CC1(C)C(=O)N(c2ccc(C#N)c(C(F)(F)F)c2)C(=O)N1Cc1ccccc1Nc1ccc(C(C(=O)O)C(=O)O)cc1` [Example 238, 2-(4-{2-[3-(4-cyano-3-trifluoromethylphenyl)-5,5-dimethyl-2,4-dioxoimidazolidin-1-ylmethyl]phenylamino}phenyl)malonic acid] belongs 8.00.
